In PMC8020607 (Computational Biology and Chemistry, 2021):

Molecular target: T1, C5a (recombinant human C5a) (Homo sapiens, UniProt P01031)
T1 sequence (P01031 678-751 limits assumed): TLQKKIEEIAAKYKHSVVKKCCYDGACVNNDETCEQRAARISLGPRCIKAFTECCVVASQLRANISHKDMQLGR
Assay: intrinsic tyrosine fluorescence titration, non-linear fit
Type: binding

C[C@]12C=CC(=O)C=C1CC[C@@H]1[C@@H]2C(=O)C[C@@]2(C)[C@H]1CC[C@]2(O)C(=O)CO [prednisone]
Kd: ~0.38 µM
